Data as given in paper PMC8621172, “Manipulating Estrogenic/Anti-Estrogenic Activity of Triphenylethylenes towards Development of Novel Anti-Neoplastic SERMs” (International Journal of Molecular Sciences, 2021).

Columns and labels:
ER = details: fold over TAM; cited from earlier work
MCF-7 cells = experiment: NCI growth inhibition on MCF-7 (single dose and five-dose, SRB); assay type: cell-based, human; details: Homo sapiens, MCF7
Experimental: Compounds were submitted to the Developmental Therapeutics Program (DTP) of the National Cancer Institute (NCI). The program uses a panel of 60 human tumor cell lines representing nine tissue types, including leukemia, non-small cell lung cancer (NSCLC), melanoma, colon cancer, ovarian cancer, CNS cancer, renal cancer, prostate cancer, and breast cancer, to screen for potential new anti-cancer agents. […] Primary screening of synthesized compounds was performed by testing a single high dose of 10 µM in the full NCI-60 panel. The percent growth of treated cells relative to the no-drug control and relative to the time zero number of cells was measured, and a mean graph was provided. The percentage inhibition was then calculated by subtracting the values obtained from 100.
All compounds were subjected to the NCI in vitro disease-oriented human cells screening panel assay. The human tumor cell lines of the cancer-screening panel are grown in RPMI 1640 medium containing 5% fetal bovine serum and 2 mM L-glutamine. For a typical screening experiment, cells are inoculated into 96-well microtiter plates in 100 μL at plating densities ranging from 5000 to 40,000 cells/well depending on the doubling time of individual cell lines. After cell inoculation, the microtiter plates are incubated at 37 °C, 5% CO2, 95% air, and 100% relative humidity for 24 h prior to the addition of experimental drugs. After 24 h, two plates of each cell line are fixed in situ with TCA to represent a measurement of the cell population for each cell line at the time of drug addition. Experimental drugs are solubilized in dimethyl sulfoxide at 400-fold the desired final maximum test concentration and stored frozen prior to use. At the time of drug addition, an aliquot of frozen concentrate is thawed and diluted to twice the desired final maximum test concentration with complete medium containing 50 μg/mL gentamicin. Additional four, 10-fold, or ½ log serial dilutions are made to provide a total of five drug concentrations plus control. Aliquots of 100 μL of these different drug dilutions are added to the appropriate microtiter wells already containing 100 μL of medium, resulting in the required final drug concentrations. Following drug addition, the plates are incubated for an additional 48 h at 37 °C, 5% CO2, 95% air, and 100% relative humidity. For adherent cells, the assay is terminated by the addition of cold TCA. Cells are fixed in situ by the gentle addition of 50 μL of cold 50% (w/v) TCA (final concentration, 10% TCA) and incubated for 60 min at 4 °C. The supernatant is discarded, and the plates are washed five times with tap water and air-dried. Sulforhodamine B (SRB) solution (100 μL) at 0.4% (w/v) in 1% acetic acid is added to each well, and plates are incubated for 10 min at room temperature. After staining, unbound dye is removed by washing five times with 1% acetic acid, and the plates are air-dried. Bound stain is subsequently solubilized with a 10 mM trizma base, and the absorbance is read on an automated plate reader at a wavelength of 515 nm. For suspension cells, the methodology is the same except that the assay is terminated by fixing settled cells at the bottom of the wells by gently adding 50 μL of 80% TCA (final concentration, 16% TCA). Compounds are screened at a dose of 10 µM, hits showing mean growth inhibition over 60 cell lines >50% are escalated for 5-dose screening assay. To construct a dose-response curve, about 60 cell lines of nine tumor subpanels were incubated with five concentrations (0.01–100 μM) for each compound. Three response parameters (GI50, TGI, and LC50) were calculated for each cell line.

colon cancer cell lines = experiment: NCI five-dose assay, colon cancer subpanel; assay type: cell-based; details: Homo sapiens
Experimental: (§1) All compounds were subjected to the NCI in vitro disease-oriented human cells screening panel assay. The human tumor cell lines of the cancer-screening panel are grown in RPMI 1640 medium containing 5% fetal bovine serum and 2 mM L-glutamine. For a typical screening experiment, cells are inoculated into 96-well microtiter plates in 100 μL at plating densities ranging from 5000 to 40,000 cells/well depending on the doubling time of individual cell lines. After cell inoculation, the microtiter plates are incubated at 37 °C, 5% CO2, 95% air, and 100% relative humidity for 24 h prior to the addition of experimental drugs. After 24 h, two plates of each cell line are fixed in situ with TCA to represent a measurement of the cell population for each cell line at the time of drug addition. Experimental drugs are solubilized in dimethyl sulfoxide at 400-fold the desired final maximum test concentration and stored frozen prior to use. At the time of drug addition, an aliquot of frozen concentrate is thawed and diluted to twice the desired final maximum test concentration with complete medium containing 50 μg/mL gentamicin. […] Bound stain is subsequently solubilized with a 10 mM trizma base, and the absorbance is read on an automated plate reader at a wavelength of 515 nm. […] Three response parameters (GI50, TGI, and LC50) were calculated for each cell line.

NSCLC cell lines = experiment: NCI five-dose assay, NSCLC subpanel; assay type: cell-based; details: Homo sapiens
Experimental: as §1

renal cell lines = experiment: NCI five-dose assay, renal subpanel; assay type: cell-based; details: Homo sapiens
Experimental: as §1

prostate cell lines = experiment: NCI five-dose assay, prostate subpanel; assay type: cell-based; details: Homo sapiens
Experimental: as §1

Structure (SMILES)	affinity to the ER compared to the parent drug TAM (times) (ER)	inhibition at 10 µM (MCF-7 cells; 10 µM)	GI50 (MCF-7 cells; MCF-7, five-dose assay, 48 h)	GI50 (colon cancer cell lines)	GI50 (NSCLC cell lines)	GI50 (renal cell lines)	GI50 (prostate cell lines)
CC/C(=C(\c1ccc(O)cc1)c1ccc(OCCNC)cc1)c1ccccc1 [endoxifen]	100	–	–	–	–	–	–
CC/C(=C(\c1ccccc1)c1ccc(OCCN(C)C)cc1)c1ccccc1 [TAM, Tamoxifen, reference compound]	–	> 100%	1.58 µM	6.31 µM	6.31 µM	5 µM	5.35 µM
CC/C(=C(\c1ccc(O)cc1)c1ccc(OCCN(C)C)cc1)c1ccccc1 [Compound 4-OH-TAM, 4-hydroxy-TAM]	100	–	–	–	–	–	–
